Data as given in the supplement of paper PMC11061612.

Assays:
Experiment in all cases: Bliss excess, mean over the matrix (fraction); higher = more synergy
ARH-77 (Non-Cancerous) = tested on: ARH-77 (Non-Cancerous)
How it was run: (§1)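 Bliss excess equals the observed combination effect minus the expected value EA + EB − EA·EB, where EA and EB are the effects of each agent alone. Combination Emax is the second-highest inhibition within the matrix. Inhibition was scaled from CellTiter-Glo 2.0 luminescence, with 0 set by vehicle wells and 1 by blank wells, after 72 hours of two-drug dosing of cells plated in 1536-well plates.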

[1] = tested on: CCK-81 (Colorectal Carcinoma)
How it was run: as §1

[2] = tested on: ECC10 (Gastric Carcinoma)
How it was run: as §1

LN-405 (Glioblastoma) = tested on: LN-405 (Glioblastoma)
How it was run: as §1

[3] = tested on: NCI-H64 (Small Cell Lung Carcinoma)
How it was run: as §1

[4] = tested on: VCaP (Prostate Carcinoma)
How it was run: as §1

Row | Compound | Bliss excess (ARH-77 (Non-Cancerous)) | Bliss excess [1] | Bliss excess [2] | Bliss excess (LN-405 (Glioblastoma)) | Bliss excess [3] | Bliss excess [4]
1 | COc1nnc2ccc(N3CCC(c4ccc(OCCN5CCN(C)C(=O)[C@H]5C)cc4)CC3)nn12 [AZD5153] + C[C@@H]1COCCN1C2=NC(=NC(=C2)C3(CC3)[S@](=N)(=O)C)C4=C5C=CNC5=NC=C4 [AZD6738] (first compound max 1 µM, 7x7, partner max 10 µM) | -0.0293 | 0.0184 | 0.0654 | -0.0235 | 0.0357 | -0.0521
2 | COc1nnc2ccc(N3CCC(c4ccc(OCCN5CCN(C)C(=O)[C@H]5C)cc4)CC3)nn12 [AZD5153] + Cc1c2c(nn1C)CSCc1cc(n(C)n1)CSc1cc(c3ccccc3c1)OCCCc1c(C(=O)O)n(C)c3c-2c(Cl)ccc13 [AZD5991] (first compound max 1 µM, 7x7, partner max 1 µM) | -0.04 | -0.0485 | 0.0743 | -0.0084 | -0.0074 | -0.0242
3 | COc1nnc2ccc(N3CCC(c4ccc(OCCN5CCN(C)C(=O)[C@H]5C)cc4)CC3)nn12 [AZD5153] + Cn1cnc2c(F)c(Nc3ccc(Br)cc3Cl)c(C(=O)NOCCO)cc21 [Selumetinib] (first compound max 1 µM, 7x7, partner max 10 µM) | -0.0251 | 0.0649 | 0.0419 | -0.0171 | 0.0021 | -0.059
4 | Cc1c2c(nn1C)CSCc1cc(n(C)n1)CSc1cc(c3ccccc3c1)OCCCc1c(C(=O)O)n(C)c3c-2c(Cl)ccc13 [AZD5991] + C1CN(CCC1(C(=O)N[C@@H](CCO)C2=CC=C(C=C2)Cl)N)C3=NC=NC4=C3C=CN4 [Capivasertib] (first compound max 1 µM, 7x7, partner max 3 µM) | -0.037 | 0.0555 | 0.0934 | 0.0158 | -0.0261 | 0.0545
5 | Cc1c2c(nn1C)CSCc1cc(n(C)n1)CSc1cc(c3ccccc3c1)OCCCc1c(C(=O)O)n(C)c3c-2c(Cl)ccc13 [AZD5991] + C=CCn1c(=O)c2cnc(Nc3ccc(N4CCN(C)CC4)cc3)nc2n1-c1cccc(C(C)(C)O)n1 [AZD1775] (first compound max 1 µM, partner max 1 µM) | -0.0418 | -0.0116 | 0.0696 | 0.0077 | -0.0187 | -0.011
6 | Cc1c2c(nn1C)CSCc1cc(n(C)n1)CSc1cc(c3ccccc3c1)OCCCc1c(C(=O)O)n(C)c3c-2c(Cl)ccc13 [AZD5991] + CC1(C)CCC(CN2CCN(c3ccc(C(=O)NS(=O)(=O)c4ccc(NCC5CCOCC5)c([N+](=O)[O-])c4)c(Oc4cnc5[nH]ccc5c4)c3)CC2)=C(c2ccc(Cl)cc2)C1 [Venetoclax] (first compound max 1 µM, 7x7, partner max 1 µM) | 0.0087 | 0.0362 | 0.277 | 0.0082 | 0.0308 | -0.0351
7 | Cc1c2c(nn1C)CSCc1cc(n(C)n1)CSc1cc(c3ccccc3c1)OCCCc1c(C(=O)O)n(C)c3c-2c(Cl)ccc13 [AZD5991] + CCN(CCO)CCCOc1ccc2c(Nc3cc(CC(=O)Nc4cccc(F)c4)[nH]n3)ncnc2c1 [AZD2811] (first compound max 1 µM, 7x7, partner max 1 µM) | -0.0146 | 0.0227 | 0.0058 | 0.0122 | 0.144 | 0.08
8 | Cc1c2c(nn1C)CSCc1cc(n(C)n1)CSc1cc(c3ccccc3c1)OCCCc1c(C(=O)O)n(C)c3c-2c(Cl)ccc13 [AZD5991] + CN(C)CCCOc1ccc(-c2ccc3ncc4c(c3c2)n(C2CCOCC2)c(=O)n4C)cn1 [AZD0156] (first compound max 1 µM, 7x7, partner max 1 µM) | -0.0423 | 0.0379 | -0.0158 | -0.0026 | -0.0708 | 0.0034
9 | Cc1c2c(nn1C)CSCc1cc(n(C)n1)CSc1cc(c3ccccc3c1)OCCCc1c(C(=O)O)n(C)c3c-2c(Cl)ccc13 [AZD5991] + C[C@@H]1COCCN1C2=NC(=NC(=C2)C3(CC3)[S@](=N)(=O)C)C4=C5C=CNC5=NC=C4 [AZD6738] (first compound max 1 µM, 7x7, partner max 10 µM) | -0.014 | 0.0173 | 0.0683 | 0.0493 | 0.0193 | 0.0348
10 | Cc1c2c(nn1C)CSCc1cc(n(C)n1)CSc1cc(c3ccccc3c1)OCCCc1c(C(=O)O)n(C)c3c-2c(Cl)ccc13 [AZD5991] + C[C@@H](Nc1cc(F)cc(F)c1)c1cc(C(=O)N(C)C)cc2c(=O)cc(N3CCOCC3)oc12 [AZD8186] (first compound max 1 µM, 7x7, partner max 3 µM) | -0.0404 | 0.0103 | 0.024 | 0.028 | -0.0067 | -0.0086
11 | Cc1c2c(nn1C)CSCc1cc(n(C)n1)CSc1cc(c3ccccc3c1)OCCCc1c(C(=O)O)n(C)c3c-2c(Cl)ccc13 [AZD5991] + Cc1cc2ncnn2cc1Nc1ncc2c(n1)n(C1CCOCC1)c(=O)n2C [AZD7648] (first compound max 1 µM, 7x7, partner max 10 µM) | -0.024 | -0.0103 | -0.0409 | -0.0439 | -0.0186 | -0.0067
12 | Cc1c2c(nn1C)CSCc1cc(n(C)n1)CSc1cc(c3ccccc3c1)OCCCc1c(C(=O)O)n(C)c3c-2c(Cl)ccc13 [AZD5991] + Cn1cnc2c(F)c(Nc3ccc(Br)cc3Cl)c(C(=O)NOCCO)cc21 [Selumetinib] (first compound max 1 µM, 7x7, partner max 3 µM) | -0.0069 | 0.009 | 0.0176 | 0.003 | -0.026 | -0.0213
13 | C[C@@H]1COCCN1c1cc(C2([S@](C)(=N)=O)CC2)nc(-c2ccnc3[nH]ccc23)n1 [AZD6738] + O=C(c1cc(Cc2n[nH]c(=O)c3ccccc23)ccc1F)N1CCN(C(=O)C2CC2)CC1 [Olaparib] (first compound max 10 µM, 7x7, partner max 10 µM) | -0.0297 | -0.0049 | 0.0666 | 0.0005 | -0.0686 | -0.0107
14 | Cc1cc2ncnn2cc1Nc1ncc2c(n1)n(C1CCOCC1)c(=O)n2C [AZD7648] + C=CCn1c(=O)c2cnc(Nc3ccc(N4CCN(C)CC4)cc3)nc2n1-c1cccc(C(C)(C)O)n1 [AZD1775] (first compound max 10 µM, partner max 1 µM) | -0.0575 | 0.0285 | 0.0498 | -0.0402 | -0.0585 | -0.0497
15 | Cc1cc2ncnn2cc1Nc1ncc2c(n1)n(C1CCOCC1)c(=O)n2C [AZD7648] + CCN(CCO)CCCOc1ccc2c(Nc3cc(CC(=O)Nc4cccc(F)c4)[nH]n3)ncnc2c1 [AZD2811] (first compound max 10 µM, 7x7, partner max 1 µM) | 0.0348 | 0.0699 | -0.047 | -0.0206 | 0.0392 | 0.0023
16 | Cc1cc2ncnn2cc1Nc1ncc2c(n1)n(C1CCOCC1)c(=O)n2C [AZD7648] + CN(C)CCCOc1ccc(-c2ccc3ncc4c(c3c2)n(C2CCOCC2)c(=O)n4C)cn1 [AZD0156] (first compound max 10 µM, 7x7, partner max 1 µM) | -0.049 | -0.0003 | 0.0025 | -0.0215 | -0.0367 | 0.0154
17 | Cc1cc2ncnn2cc1Nc1ncc2c(n1)n(C1CCOCC1)c(=O)n2C [AZD7648] + C[C@@H]1COCCN1C2=NC(=NC(=C2)C3(CC3)[S@](=N)(=O)C)C4=C5C=CNC5=NC=C4 [AZD6738] (first compound max 10 µM, 7x7, partner max 10 µM) | -0.0463 | 0.0178 | 0.0582 | -0.0881 | -0.0003 | 0.0437
18 | Cc1cc2ncnn2cc1Nc1ncc2c(n1)n(C1CCOCC1)c(=O)n2C [AZD7648] + O=C(c1cc(Cc2n[nH]c(=O)c3ccccc23)ccc1F)N1CCN(C(=O)C2CC2)CC1 [Olaparib] (first compound max 10 µM, 7x7, partner max 10 µM) | 0.0393 | -0.0546 | -0.0305 | -0.0421 | -0.0384 | -0.0336
19 | NC1(C(=O)N[C@@H](CCO)c2ccc(Cl)cc2)CCN(c2ncnc3[nH]ccc23)CC1 [Capivasertib] + CC(=O)c1c(C)c2cnc(Nc3ccc(N4CCNCC4)cn3)nc2n(C2CCCC2)c1=O [Palbociclib] (first compound max 10 µM, 7x7, partner max 10 µM) | -0.0211 | -0.0025 | -0.011 | -0.0295 | -0.0332 | 0.0119
20 | NC1(C(=O)N[C@@H](CCO)c2ccc(Cl)cc2)CCN(c2ncnc3[nH]ccc23)CC1 [Capivasertib] + CC(C)n1c(=O)n(C)c2cnc3cc(F)c(-c4ccc(OCCCN5CCCCC5)nc4)cc3c21 [AZD1390] (first compound max 10 µM, 7x7, partner max 0.3 µM) | -0.0509 | -0.0514 | -0.0231 | -0.0912 | -0.0284 | -0.0389
21 | NC1(C(=O)N[C@@H](CCO)c2ccc(Cl)cc2)CCN(c2ncnc3[nH]ccc23)CC1 [Capivasertib] + CCN(CCO)CCCOc1ccc2c(Nc3cc(CC(=O)Nc4cccc(F)c4)[nH]n3)ncnc2c1 [AZD2811] (first compound max 10 µM, 7x7, partner max 1 µM) | -0.0156 | 0.0065 | -0.039 | -0.0767 | 0.0427 | 0.0328
22 | NC1(C(=O)N[C@@H](CCO)c2ccc(Cl)cc2)CCN(c2ncnc3[nH]ccc23)CC1 [Capivasertib] + COc1nnc2ccc(N3CCC(c4ccc(OCCN5CCN(C)C(=O)[C@H]5C)cc4)CC3)nn12 [AZD5153] (first compound max 10 µM, 7x7, partner max 1 µM) | -0.0253 | -0.0176 | 0.0708 | -0.013 | -0.0011 | 0.0181
23 | NC1(C(=O)N[C@@H](CCO)c2ccc(Cl)cc2)CCN(c2ncnc3[nH]ccc23)CC1 [Capivasertib] + C[C@@H]1COCCN1C2=NC(=NC(=C2)C3(CC3)[S@](=N)(=O)C)C4=C5C=CNC5=NC=C4 [AZD6738] (first compound max 10 µM, 7x7, partner max 10 µM) | -0.0375 | -0.139 | -0.0163 | -0.0413 | -0.0591 | -0.0179
24 | NC1(C(=O)N[C@@H](CCO)c2ccc(Cl)cc2)CCN(c2ncnc3[nH]ccc23)CC1 [Capivasertib] + Cn1cnc2c(F)c(Nc3ccc(Br)cc3Cl)c(C(=O)NOCCO)cc21 [Selumetinib] (first compound max 10 µM, 7x7, partner max 10 µM) | 0.0614 | 0.0753 | 0.0563 | -0.0051 | -0.0027 | -0.0249
25 | Cc1nc(Nc2ncc(C(=O)Nc3c(C)cccc3Cl)s2)cc(N2CCN(CCO)CC2)n1 [Dasatinib] + CC(=O)Nc1cccc(-n2c(=O)n(C3CC3)c(=O)c3c(Nc4ccc(I)cc4F)n(C)c(=O)c(C)c32)c1 [Trametinib] (first compound max 2 µM, 7x7, partner max 1 µM) | -0.0311 | -0.057 | -0.0334 | -0.0347 | -0.0498 | -0.0396
